Laboratory results reported in patent US20150010933A1, “Novel Screening Methods” (The Trustees of the University of Pennsylvania, priority 2012, published 2015).

Key:
Type in all cases: biochemical
[1] = target: ATP synthesis activity of M. smegmatis membranes; test: ATP synthesis assay with M. smegmatis membranes (luciferase/luciferin luminescence, 384 well plate); conditions: 10 μg/ml M. smegmatis membrane, 1 mM NADH, 25 μM ADP, 10 mM K-Pi, pH 7.0, total volume 20 μL; read-out: IC50, ATP synthesis activity normalized to the positive control
[2] = test system: NADH oxidase activity of M. smegmatis membranes; test: NADH oxidase activity assay with M. smegmatis membranes; conditions: 0.2 mM NADH, 10 μg/ml membrane, pH 7.0
Protocol: FIG. 10 is a graph illustrating the effect of TMC207 on the NADH oxidase activity of M. smegmatis membranes. The assay was carried out in the presence of various concentrations of TMC207. The reactions contained 0.2 mM NADH and 10 μg/ml membrane in 50 mM Hepes/2 mM MgCl2 (pH 7.0) buffer.

[3] = test system: ΔpH across M. smegmatis membranes; test: ΔpH across the membranes monitored with pH sensitive fluorescent dye ACMA; conditions: 1 μM ACMA, 10 μg/ml M. smegmatis membrane, initiated with 1 mM NADH, pH 7.0
Protocol: FIG. 11 is a graph illustrating the effect of TMC207 on ΔpH across the membranes. ΔpH was monitored by using a pH sensitive fluorescent dye 9-amino-6-chloro-2-methoxyaridine (ACMA). The reactions contained 1 μM ACMA, 10 μg/ml M. smegmatis membrane in 5 mM Hepes/2 mM MgCl2 buffer (pH 7.0). The reaction was initiated by addition of 1 mM NADH (open symbols) and NADH was omitted in negative controls (closed symbols). Fluorescence was measured by a plate reader with 420 nm for excitation and 510 nm for emission wavelength.

COc1nc2ccc(Br)cc2cc1[C@@H](c1ccccc1)[C@@](O)(CCN(C)C)c1cccc2ccccc12 [TMC207, (1R,2S)-1-(6-bromo-2-methoxy-3-quinolyl)-4-dimethylamino-2-(1-naphthyl)-1-phenyl-butan-2-ol]
IC50 [1]: 0.147 nM
inhibition of NADH oxidase activity ([2]; at 10 μM): did not inhibit
inhibition of NADH oxidase activity ([2]; at only high concentrations): marginal inhibition
effect on ΔpH across the membrane [3]: did not affect
